Patent publication US20080085861A1, “GAS1 POLYPEPTIDES” (priority 1999, published 2008)
Entries after “also recorded” stand apart in the source; their conditions may differ.

What was measured:
[1] = tested on: human neuroblastoma NB69 cells; assay: Staurosporine-induced neuronal death in NB69 cells, viable cell count; type: cell-based; settings: 200 nM staurosporine, viability 24 hr after exposure; 25 μM Ag1 in NB69 wt, or stable expression in NB69-Gas1 cells
Procedure: Columns 1 and 2. […] Columns 3 and 4. The viability was analyzed 24 hr after exposure to staurosporine (200 nM) in all the cases. Results are expressed as mean +/−SEM. Statistical analysis was performed by Student's t-test. *** denotes […], and other treatment groups were statistically non-significant (p<0.5).
Staurosporine-induced neuronal death was assayed in human neuroblastoma NB69 cells cultured in DMEM/HAM F12 medium supplemented with 10% fetal calf serum, 2 mM glutamine and 50 μg/ml gentamycin. Wild-type or stably transfected NB69 cells (2×10^4 cells/35 mm dish) were exposed to […] staurosporine (RBI). Phase-bright cells without signs of membrane or neurite degeneration were counted 24 hr later. Experiments were done in triplicate and repeated as least five times. Stably transfected NB69 cells that overexpress Gas1 in the […] orientation (NB69-Gas1) were prepared by the calcium phosphate precipitation method followed by two weeks of geneticin selection. Control cells were prepared in parallel by transfection with pCDNA3 vector alone (NB69-vector). Expression of the constructs in the cell clones were analyzed by northern blot analysis, and the clones having the highest expression were chosen for the experiments. Stable tranfectants were kept in the presence of 0.3 mg/ml of geneticin, which was removed before plating for the experiments.

[2] = tested on: cortico-hippocampal cultures; assay: NMDA-induced neuronal death (excitotoxicity) in cortico-hippocampal cultures, viability by vital staining; type: cell-based, rat; set-up: survival: dose or concentration left out as unconfirmed
Procedure: The viability of mature cortico-hippocampal cultures was analyzed 24 hr after […] NMDA exposure. Pretreatment with the different antisense oligonucleotides at the indicated concentrations was done 24 hr before the exposure to NMDA. Results are expressed as mean +/−SEM. Statistical analysis was performed by Student's t-test. *** denotes […], and other treatment groups were statistically non-significant (p<0.5).
NMDA-induced excitotoxicity was analyzed in cortico-hippocampal cultures maintained for 12-14 DIV similar to those already described in Example 1. To apply the excitotoxic insult, the cultures were rinsed twice with Locke's solution without Mg2+ and exposed to […] NMDA (Sigma) for 5 min. in the same Locke's solution or to Locke's solution alone as control. NMDA was washed out, the Mg2+ concentration was restored by 2 changes of Locke's +Mg2+ solution, and the original medium was replaced. Phase-bright bipolar cells, taken to represent living neurons, were counted 24 hr after the NMDA exposure. Alternatively, the vital staining method (Jones and Senft, 1985 An improved method to determine cell viability by simultaneous staining with fluorescein diacetate-propidium iodide. J Histochem Cytochem 33:77-79) was used to assess the extent of neuronal death and the protection by antisense oligonucleotide treatments. Similar results were obtained using either method. […]

Gas1 expression = Gas1 expression in brain after intraperitoneal kainic acid (Northern blot); type: in vivo, rat; settings: 10 mg/kg intraperitoneal; hippocampus and olfactory cortex
Procedure: Already detectable induced Gas1 mRNA levels after kainic acid appear 6 hours after the beginning of treatment and were maintained for at least 10 days. In order to reveal Gas1 induction and to confirm neurone localization thereof in situ hybridization after administering kainic acid was performed. […] Similar results were observed after provoking an experimental ischemic process in gerbil brain by transient occlusion of both carotids, giving rise to rapid degeneration of a numerous population of pyramidal neurons of the CA1 layer of the hippocampus. It was observed that this massive neuron death was preceded by a significant rise of Gas1 mRNA and Gas1 protein levels (evaluated by immunocytochemistry) in those neurons. Likewise, it was also observed that neuron loss in all the cerebral cortex that is produced in rats in the perinatal period after exposure to ionizing radiation is preceded by high induction of Gas1 mRNA.

[3] = Channel formation of purified Gas1 protein in artificial bilayers; type: biochemical; settings: purified protein expressed in bacteria (pTrcHis)
Excerpt: Initially, Gas1 expression has been related to the G0 phase of cell cycle arrest in rat fibroblasts deprived of serum (Del Sal et al., 1992). […] Up to now it had been described that Gas1 protein was a cell membrane protein and as of its amino acid sequence the presence of two transmembrane segments had been proposed and a hypothetical RGD domain that may interact with integrin, the only domain described that relates its structure to its arrest function of the cell cycle (Schneider et al.). The present inventors have succeeded in overexpressing the Gas1 protein by means of a prokaryotic vector (pTrcHis) in bacteria for subsequent purification in sufficient amounts to carry out protein studies. […] Aside from the already described location of this protein in the cell membrane we have located the presence of Gas1 in the perinuclear and mitochondrial membrane. It must be pointed out that Bcl-2 and Bax, proteins related to the […], are also located in the mitochondrial membrane and are capable of forming ionic channels. This common location of these proteins makes compatible a possible functional interaction of Gas1 with Bax type proapoptotic proteins and Bcl-2 and Bcl XL antiapoptotic proteins.

Molecule: 5′-TCCTCATCCATCCAT-3′ (DNA, linkages s2 o10 s2 (s phosphorothioate, o phosphodiester), methylation of C not given here) [AG1, 15-mer Gas1 antisense oligonucleotide spanning the start site of translation, protected at each end by two phosphorothioate groups]
- effect on staurosporine-induced reduction in survival [1]: prevents the reduction in survival; also recorded: total blocking
- effect on NMDA-induced neuronal death ([2]; 25 μM Ag1, pretreatment 24 hr before 500 mM NMDA, viability 24 hr after exposure): blocks NMDA-induced neuronal death
- survival ([2]; NMDA induced neuron death in primary neuron cultures, FIG. 2a): ~100%

Molecule: C=C(C)[C@H]1CN[C@H](C(=O)O)[C@H]1CC(=O)O [kainic acid]
- induction of Gas1 expression (Gas1 expression): strong induction

B1: Gas1 protein: purified Gas1 protein overexpressed by a prokaryotic vector (pTrcHis) in bacteria (protein)
chain: LAHGRRLICWQALLQCQGEPECSYAYNQYAEACAPVLAQHGGGDAPGAAAAAFPASAASFSSRWRCPSHCISALIQLNHTRRGPALEDCDCAQDENCKSTKRAIEPCLPRTSGGGAGGPGAGGVMGCTEARRRCDRDSRCNLALSRYLTYCGKVFNGLRCTDECRTVIEDMLAMPKAALLNDCVCDGLERPICESVKENMARLCFGAELGNGPGSSGSDGGLDDYYDEDYDDEQRTGGAGGEQPLDDDDGVPHPPRPGSGAAASGGRGDLPYGPGRRS
- channel formation [3]: capable of inserting in and forming cationic channels
